Assay type in all cases: functional, cell-based
The test system of assay [1] is MCF7. The assay is described as follows: Cytotoxicity against human MCF7 cells.
For assay [2], the system named is HepG2. The assay is described as follows: (§1) Cytotoxicity against human Hep G2 cells.
A short description of assay [3]: as §1. The following applies: HepG2.

Activity calls are given as the source filed them. The calls are words filed in the database; no cut-off is given here.

A word on the IC50: it is the concentration at which inhibition is half-maximal. Low values mean greater potency, high ones weaker potency.

Consider `C[C@@H]1C[C@]2(OCC[C@]3(C)O[C@H]23)O[C@H]2C[C@@]3(C)C4=CC[C@H]5C(C)(C)[C@@H](O[C@@H]6OC[C@@H](O)[C@H](O)[C@H]6O)CC[C@@]56C[C@@]46CC[C@]3(C)[C@@H]12`, for which the outcome in assay [1] and in assay [2] was inactive.

`CC(=O)O[C@@H]1C[C@@]23C[C@@]24CC[C@H](O[C@@H]2OC[C@@H](O)[C@H](O)[C@H]2O)C(C)(C)[C@@H]4CC[C@H]3[C@]2(C)C[C@@H]3OC(C(=O)C(C)C)=C[C@@H](C)[C@@H]3[C@@]12C` [ASIATICOSIDE A]: the IC50 in assay [1] was 9.78 µM; in assay [3], 9.9 µM.

Regarding `CC(=O)O[C@@H]1C[C@@]23C[C@@]24CC[C@H](O[C@@H]2OC[C@@H](O)[C@H](O)[C@H]2O)C(C)(C)[C@@H]4CC=C3[C@]2(C)C[C@@H]3OC(C(=O)C(C)C)=C[C@@H](C)[C@@H]3[C@@]12C` [ASIATICOSIDE B], the IC50 in assay [1] was 8.32 µM; in assay [3] it was 9.74 µM.

The values are drawn from ChEMBL document CHEMBL1158090, “Cytotoxic cycloartane triterpene saponins from Actaea asiatica” (J Nat Prod, 2006).
